What was measured:
Assay type in all cases: biochemical
MAGL = target: T1, MAGL (Homo sapiens, UniProt Q99685); experiment: In vitro competitive activity-based protein profiling (FP-Rh or HT-01 probe, gel-based); set-up: IC50 MGLL PC3 (Human, μM) / IC50 MGLL PFC (Human, μM): scale not given here; conditions: for % Inh MGLL PFC (Human, μM) / % Inh MGLL PC3 (Human, μM): concentration not given (μM); for % Inh MGLL PC3 (Human, μM) / IC50 MGLL PC3 (Human, μM) / IC50: PC3 cell proteome; for IC50: read-out: IC50 MGLL PC3 (Human)
T1 construct: Proteomes (human prefrontal cortex or cell membrane fractions); from tissue
T1 sequence (Q99685 1-303): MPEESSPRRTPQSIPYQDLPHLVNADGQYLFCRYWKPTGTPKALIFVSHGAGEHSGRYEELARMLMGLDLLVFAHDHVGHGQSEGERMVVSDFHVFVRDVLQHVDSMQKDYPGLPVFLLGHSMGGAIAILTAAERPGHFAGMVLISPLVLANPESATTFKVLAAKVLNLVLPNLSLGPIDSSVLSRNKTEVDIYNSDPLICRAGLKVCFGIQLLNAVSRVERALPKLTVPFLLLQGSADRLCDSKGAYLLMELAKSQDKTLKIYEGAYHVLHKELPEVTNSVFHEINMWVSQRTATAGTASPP
How it was run: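 Human prefrontal cortex or cell membrane proteomes (1.0 mg/mL total protein) were preincubated with varying inhibitor concentrations for 30 min at 37° C. FP-Rh or HT-01 probe (50 μM DMSO stock) was then added for 30 min at room temperature, and samples were quenched in SDS loading buffer and resolved by SDS-PAGE.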

MGLL = target: T2, MGLL (Mus musculus, UniProt O35678); experiment: In vitro competitive activity-based protein profiling, mouse brain proteome (MGLL); set-up: IC50 MGLL Brain (Mouse, μM): scale not given here; conditions: for % Inh MGLL Brain (Mouse, μM): concentration not given (μM)
T2 construct: Brain; from tissue; host or cells: mouse brain proteome
T2 sequence (O35678 1-303): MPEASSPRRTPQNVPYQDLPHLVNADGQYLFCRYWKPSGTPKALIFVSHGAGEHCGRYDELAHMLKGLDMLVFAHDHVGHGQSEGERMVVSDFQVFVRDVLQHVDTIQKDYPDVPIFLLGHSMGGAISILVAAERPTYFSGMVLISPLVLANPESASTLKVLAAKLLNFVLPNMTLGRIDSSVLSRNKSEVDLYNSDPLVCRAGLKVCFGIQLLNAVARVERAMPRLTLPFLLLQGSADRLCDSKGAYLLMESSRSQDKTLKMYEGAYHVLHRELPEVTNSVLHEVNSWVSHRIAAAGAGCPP

ABHD6 = target: T3, ABHD6 (Mus musculus, UniProt Q8R2Y0); experiment: In vitro competitive activity-based protein profiling, mouse brain proteome (ABHD6); conditions: mouse brain proteome; concentration not given (μM)
T3 construct: Brain; from tissue; host or cells: mouse brain proteome
T3 sequence (Q8R2Y0 1-336): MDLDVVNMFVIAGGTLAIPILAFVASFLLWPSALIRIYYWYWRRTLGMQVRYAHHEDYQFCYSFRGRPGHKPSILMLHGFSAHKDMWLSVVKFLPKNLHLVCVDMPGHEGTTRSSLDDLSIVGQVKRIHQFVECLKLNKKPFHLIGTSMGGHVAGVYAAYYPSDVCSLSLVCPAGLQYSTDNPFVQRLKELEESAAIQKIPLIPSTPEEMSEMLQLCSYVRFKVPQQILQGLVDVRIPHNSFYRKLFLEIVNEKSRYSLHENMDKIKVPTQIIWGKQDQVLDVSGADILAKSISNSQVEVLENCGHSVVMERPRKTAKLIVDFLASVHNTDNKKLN
Protocol: [The source words this procedure for another target and reports this target under the same test.] In Vitro Competitive Activity-Based Protein Profiling.
Proteomes (human prefrontal cortex or cell membrane fractions) (50 μL, 1.0 mg/mL total protein concentration) were preincubated with varying concentrations of inhibitors at 37° C. After 30 min, FP-Rh or HT-01 (1.0 μL, 50 μM in DMSO) was added and the mixture was incubated for another 30 min at room temperature. Reactions were quenched with SDS loading buffer (15 μL-4×) and run on SDS-PAGE.

[1] = prefrontal cortex (PFC) proteome

% Inh MGLL PFC (Human, μM) (MAGL; [1])	% Inh MGLL Brain (Mouse, μM) (MGLL)	% Inh ABHD6 Brain (Mouse, μM) (ABHD6)	% Inh MGLL PC3 (Human, μM) (MAGL)	IC50 MGLL PC3 (Human, μM) (MAGL)	IC50 (MAGL) [nM]	IC50 MGLL PFC (Human, μM) (MAGL; [1])	IC50 MGLL Brain (Mouse, μM) (MGLL)	Structure (SMILES)
### (### is ≥75%)	### (### is ≥75%)	### (### is ≥75%)						O=C(O)CN1CC2CC1CN2c1cc(CN2CCC3(CCN(C(=O)OC(C(F)(F)F)C(F)(F)F)CC3)C2)cc(C(F)(F)F)c1 (centres unmarked) [Example 125, 2-(5-{3-[(8-{[(1,1,1,3,3,3-Hexafluoropropan-2-yl)oxy]carbonvl}-2,8-diazaspiro[4.5]decan-2-yl)methyl]-5-(trifluoromethyl)phenyl}-2,5-diazabicyclo[2.2.1]heptan-2-yl)acetic acid]
	### (### is ≥75%)	# (# is ≤25%)	### (### is ≥75%)					CN(Cc1ccc(C(F)(F)F)cc1C1(C(=O)O)CCCC1)C1(C)CCN(C(=O)OC(C(F)(F)F)C(F)(F)F)CC1 [Example 133, l-(2-{[(1-{[(1,1,1,3,3,3-Hexafluoropropan-2-yl)oxy]carbonyl}-4-methylpiperidin-4-yl)(methyl)amino]methyl}-5-(trifluoromethyl)phenyl)cyclop entane-1-carboxylic acid]
### (### is ≥75%)	### (### is ≥75%)	## (## is between 25 and 75%)						CC1(OCc2cc(N3CCC(C(=O)O)CC3)cc(C(F)(F)F)c2)CCN(C(=O)OC(C(F)(F)F)C(F)(F)F)CC1 [Example 227, l-(3-(((1-(((1,1,1,3,3,3-Hexafluoropropan-2-yl)oxy)carbonyl)-4-melhylpiperidin-4-yl)oxy)methyl)-5-(trifluoromethyl)phenyl) piperidine-4-carboxylic acid]
### (### is ≥75%)	### (### is ≥75%)	### (### is ≥75%)		* * *				CN(Cc1ccc(C(F)(F)F)cc1N1CCC(C(=O)O)CC1)C1(C)CCN(C(=O)OC(C(F)(F)F)C(F)(F)F)CC1 [Example 14, 1-(2-(((1-(((1,1,1,3,3,3-Hexafluoropropan-2-yl)oxy)carbonyl)-4-methylpiperidin-4-yl)(methyl)amino)methyl)-5-(trifluoromethyl)phenyl)piperidine-4-carboxylic acid]
### (### is ≥75%)	### (### is ≥75%)	### (### is ≥75%)						O=C(OC(C(F)(F)F)C(F)(F)F)N1CCC2(CC1)CCN(C(=O)c1ccc(C(F)(F)F)c(Cl)c1)C2 [Example 109, 1,1,1,3,3,3-Hexafluoropropan-2-yl 2-(3-chloro-4-(trifluoromethyl)benzoyl)-2,8-diazaspiro[4.5]decane-8-carboxylate]
	### (### is ≥75%)	# (# is ≤25%)	### (### is ≥75%)		< 100			O=C(O)[C@@H]1CCCN1C1CCN(c2cc(C(F)(F)F)ccc2CN2CCCC23CCN(C(=O)OC(C(F)(F)F)C(F)(F)F)CC3)CC1 [Example 164, (1-(2-((8-(((1,1,1,3,3,3-Hexafluoropropan-2-yl)oxy)carbonyl)-1,8-diazaspiro[4.5]decan-1-yl)methyl)-5-(trifluoromethyl)phenyl)piperidin-4-yl)-L-proline]
### (### is ≥75%)	### (### is ≥75%)	## (## is between 25 and 75%)		* * *		* * *	* * *	O=C(O)C1CN(c2cc(C(F)(F)F)ccc2CN2CC3(CCN(C(=O)OC(C(F)(F)F)C(F)(F)F)CC3)C2)CCO1 (centres unmarked) [Example 20, 4-(2-((7-(((1,1,1,3,3,3-Hexafluoropropan-2-yl)oxy)carbonyl)-2,7-diazaspiro[3.5]nonan-2-yl)methyl)-5-(trifluoromethyl)phenyl)morpholine-2-carboxylic acid]
### (### is ≥75%)	### (### is ≥75%)	# (# is ≤25%)						O=C(O)CN1CCC2(CC1)CN(c1cc(C(F)(F)F)ccc1CN1CCCC13CCN(C(=O)OC(C(F)(F)F)C(F)(F)F)CC3)C2 [Example 156, 2-(2-(2-((8-(((1,1,1,3,3,3-Hexafluoropropan-2-yl)oxy)carbonyl)-1,8-diazaspiro[4.5]decan-1-yl)methyl)-5-(trifluoromethyl)phenyl)-2,7-diazaspiro[3.5]nonan-7-yl)acetic acid]
### (### is ≥75%)	### (### is ≥75%)	### (### is ≥75%)						O=C(OC(C(F)(F)F)C(F)(F)F)N1CCC2(CC1)CCN(C(=O)c1cc(Cl)cc(C(F)(F)F)c1)C2 [Example 110, 1,1,1,3,3,3-Hexafluoropropan-2-yl 2-(3-chloro-5-(trifluoromethyl)benzoyl)-2,8-diazaspiro[4.5]decane-8-carboxylate]
### (### is ≥75%)	### (### is ≥75%)	### (### is ≥75%)						CC1(C(=O)O)CCN(c2cc(CN3CC4(CCN(C(=O)OC(C(F)(F)F)C(F)(F)F)CC4)C3)cc(C(F)(F)F)c2)C1 (stereo not drawn) [Example 121, l-(3-((7-(((1,1,1,3,3,3-Hexafluoropropan-2-yl)oxy)carbonyl)-2,7-diazaspiro[3.5]nonan-2-yl)methyl)-5-(trifluoromethyl)phenyl)-3-methylpyrrolidine-3-carboxylic acid]
## (## is between 25 and 75%)	# (# is ≤25%)	## (## is between 25 and 75%)						O=C(O)C1CCN(Cc2ccc(CN3CCC4(CC3)CCN(C(=O)OC(C(F)(F)F)C(F)(F)F)C4)cc2C(F)(F)F)CC1 [Example 225, l-(4-((2-(((1,1,1,3,3,3-Hexafluoropropan-2-yl)oxy)carbonyl)-2,8-diazaspiro[4.5]decan-8-yl)methyl)-2-(trifluoromethyl)benzyl) piperidine-4-carboxylic acid]
### (### is ≥75%)	# (# is ≤25%)	# (# is ≤25%)						O=C(O)C1CCCCN1c1cc(C(F)(F)F)ccc1CN1CC2(CCN(C(=O)OC(C(F)(F)F)C(F)(F)F)CC2)C1 (centres unmarked) [Example 23, 1-(2-((7-(((1,1,1,3,3,3-Hexafluoropropan-2-yl)oxy)carbonyl)-2,7-diazaspiro[3.5]nonan-2-yl)methyl)-5-(trifluoromethyl)phenyl)piperidine-2-carboxylic acid]
	### (### is ≥75%)	# (# is ≤25%)	### (### is ≥75%)		< 100			CN(Cc1ccc(C(F)(F)F)cc1N1CCC(N2CCC[C@@H]2C(=O)O)CC1)C1(C)CCN(C(=O)OC(C(F)(F)F)C(F)(F)F)CC1 [Example 162, (1-(2-(((1-(((1,1,1,3,3,3-Hexafluoropropan-2-yl)oxy)carbonyl)-4-methylpiperidin-4-yl)(methyl)amino)methyl)-5-(trifluoromethyl)phenyl)piperidin-4-yl)-D-proline]
### (### is ≥75%)	### (### is ≥75%)	# (# is ≤25%)	### (### is ≥75%)		100 to 1000			CN(Cc1ccc(C(F)(F)F)cc1N1CCC[C@H]1C(=O)O)C1(C)CCN(C(=O)OC(C(F)(F)F)C(F)(F)F)CC1 [Example 132, (2-(((1-(((1,U, 3,3,3-Hexafluoropropan-2-yl)oxy)carbonyl)-4-methylpiperidin-4-yl)(methyl)amino)methyl)-5-(trifluoromethyl)phenyl)proline]
